These are literature values, as cited in patent US8273732B2, “Compositions for combating beta-lactamase-medicated antibiotic resistance using beta-lactamase inhibitors useful for injection” (Venus Remedies Limited, priority 2004, dated 2012).

≈ marks a conversion by molar mass, not a printed value. Counter-ions that a name gives are not always drawn.

One data set relates to Acinetobacter baumannii. Conditions: 156 clinical isolates of A. baumannii.

With `CC1(C)[C@H](C(=O)O)N2C(=O)C[C@H]2S1(=O)=O` [Sulbactam, sulbactam], in the data set on Acinetobacter baumannii, the “MIC (90)” value was 32 µg/mL (≈ 137 µM).
Consider `CO/N=C(\C(=O)N[C@@H]1C(=O)N2C(C(=O)O)=C(CSc3nc(=O)c(=O)[nH]n3C)CS[C@H]12)c1csc(N)n1` [ceftriaxone sodium, (6R,7R)-7-[2-(2-amino-4-thiazolyl)glyoxylamido]-8-oxo-3-[[(1,2,5,6-tetrahydro-2-methyl-5,6-dioxo-as-triazin-3-yl)thio]methyl]-5-thia-1-azabicyclo[4.2.0]oct-2-ene-2-carboxylic acid, 7^2-(Z)-(O-methyloxime), disodium salt, sesquaterhydrate], for which, for the setting “ethanol”, the solubility in ethanol result is “very slightly soluble”. For the setting “methanol”, the solubility in methanol entry is on record as “sparingly soluble”. For the same compound, the solubility in water result (water) is listed as “readily soluble”.
